Laboratory results taken from patent US4145554A, “3-Nitropyrazole derivatives” (Eli Lilly and Company, priority 1977, dated 1979).
Converted amounts (≈) assume the structure as drawn. Read-outs that look alike come from different tables or passages of the source.

Experiments:
[1] = test system: naturally-occurring pneumoenteritis complex infection (pasteurella species, E. coli and salmonellae); test: Pneumoenteritis complex disease in calves, first test; format: in vivo; conditions: for Mortality / Avg. Wt. Gain: milk replacer, 56 days; for Avg. Wt. Gain: survivors
Method: Our compound, 1-(2-hydroxyethyl)-3-nitro-4-pyrazolecarboxamide, was evaluated in the control of a naturally-occurring pneumoenteritis complex infection of calves. […] A group of 24 calves was allocated randomly into three treatment groups. The average weights of the treatment groups were nearly identical at the start of the experiment. The calves were housed in quarters which were kept as clean as typical calf quarters, but in which calves suffering from pneumoenteritis complex had previously been housed. […] One group was a control group, and was fed on a typical milk replacer diet. The other two groups received 200 mg. and 400 mg. per day respectively of the 3-nitro-pyrazole compound, mixed in their milk replacer diets.
The calves were carefully observed daily to detect signs of illness as quickly as such signs appeared. The calves were weighed at weekly intervals. Various organs were removed from the calves which died during the experiment, and cultures were prepared from the organs to identify microorganisms. At the end of the 56-day experiment, cultures were prepared from nasal and rectal swabs of the surviving calves, and microorganisms in the cultures were identified.

[2] = test system: Mycoplasma hyosynoviae; test: in vitro tube dilution test (MIC); format: cell-based
[3] = test system: Streptococcus sp. (group E); test: in vitro tube dilution test (MIC); format: cell-based
[4] = test system: Pasteurella multocida; test: in vitro tube dilution test (MIC); format: cell-based; conditions: tube dilution, read-out: MIC
How it was run: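 Standard tube dilution test; MIC is the lowest compound concentration controlling growth, given in μg/mL.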

[5] = test system: Alkaligenes fecalis; test: agar dilution technique (MIC); format: cell-based
[6] = secretion in sow's milk; set-up: species or system swine; conditions: in vivo
[7] = test system: Serratia sp.; test: agar dilution technique (MIC); format: cell-based
[8] = test system: S. typhimurium; test: Salmonella typhimurium in chickens, medicated feed; format: in vivo, chicks; conditions: for Avg. Wt.: surviving chicks
[9] = test system: Hemophilus somnus; test: in vitro tube dilution test (MIC); format: cell-based
[10] = test system: P. multocida; test: Mice infected with P. multocida, compound in drinking water; format: in vivo; conditions: 7 days
Method: Some of the 3-nitropyrazoles were also administered to mice infected with P. multocida. Tests were conducted in which the pyrazoles were administered both by injection and in the drinking water.
The table below reports results of tests in which the compound was administered in the water. Groups of 10 standardized white mice were segregated, and each mouse was infected by injecting a broth culture of P. multocida subcutaneously. The administration of the test compounds was begun at the same time the mice were infected by adding a known amount of the test compound to the drinking water of the mice. One group of infected control mice received no treatment. The mice were observed, and the test was concluded at the end of 7 days. The number of mice in each group which survived the P. multocida infection was recorded.

[11] = test system: Enterobacter cloacae and aerogenes; test: agar dilution technique (MIC); format: cell-based
[12] = test system: E. coli; test: Tests in mice, E. coli infection; format: in vivo
Method: Groups of laboratory mice were inoculatd with E. coli or with Streptococcus pyogenes. The 3-nitropyrazoles were administered in two different modes to the infected mice. In one group of tests, the compound was administered in two subcutaneous doses of 83 mg./kg. each, given 1 and 5 hours after the mice were inoculated with the organism. The mice were observed, and the results reported below as the number of days the treated mice survived the challenge.
In the other group of tests, the dose of each compound which allowed 50 percent of the treated mice to survive the challenge was determined. Again, the compound was administered in subcutane divided doses, 1 and 5 hours post-inoculation.

[13] = test system: Streptococcus sp. (group D); test: agar dilution technique (MIC); format: cell-based
[14] = test system: avian E. coli; test: Colibacillosis in chickens, medicated feed; format: in vivo
[15] = test system: Proteus sp.; test: agar dilution technique (MIC); format: cell-based
[16] = test system: Streptococcus pyogenes; test: agar dilution technique (MIC); format: cell-based
[17] = test system: Arizona hinshaw (paracolon); test: in vitro tube dilution test (MIC); format: cell-based
[18] = test system: Erwinia amylovora; test: Fire blight of pear, in vivo greenhouse test
Method: An in vivo test was conducted against the fire blight organism, Erwinia amylovora. Plants infected with E. amylovora were sprayed with aqueous dispersions containing 100 ppm. and 500 ppm. of the test compounds. […] The compounds are identified below by their compound numbers in the above listing.

[19] = 200 mg./day/calf (3-5 mg./kg./day)
[20] = 400 mg./day/calf (6-10 mg./kg./day)
[21] = 100 gm./ton, 10^-1 dilution challenge, initial weight 940 gm.
[22] = 100 gm./ton, further test, about 5 weeks of age
[23] = 200 gm./ton, 10^-1 dilution challenge, initial weight 940 gm.
[24] = 200 gm./ton, further test, about 5 weeks of age
[25] = 300 gm./ton feed, about 5 weeks old, 10^-2 dilution challenge, first test
[26] = 300 gm./ton, 10^-1 dilution challenge, initial weight 940 gm.

In the case of `NC(=O)c1cn(CCO)nc1[N+](=O)[O-]` [Compound 32, 1-(2-hydroxyethyl)-3-nitro-4-pyrazolecarboxamide], the Mortality [1, 19] is reported as 1/8, the “Avg. Wt. Gain” value [1, 19] is reported as 36.6 lbs and the Mortality [1, 20] is reported as 1/8. For the same compound, the “Avg. Wt. Gain” value [1, 20] was 55.3 lbs, the “surviving treated calves with P. multocida or hemolytica in nasal swabs” value ([1]; 200 and 400 mg. per day groups, end of 56 days) was 11 of the 14 surviving treated calves and the “surviving calves with E. coli in rectal swabs” value ([1]; of 14 surviving treated calves, end of 56 days) was 12 of the surviving calves. It also gave an MIC [2] of 50 µg/mL (≈ 250 µM), an MIC [3] of 1.56 µg/mL (≈ 7.79 µM) and an MIC ([4]; Cattle Isolates) of less than 1.56 µg/mL. It also gave an MIC ([4]; Swine Isolate (first line)) greater than 50 µg/mL, an MIC ([4]; Swine Isolate (second line)) of 6.25 µg/mL (≈ 31.2 µM) and an MIC ([4]; Turkey Isolates) greater than 50 µg/mL. For the same compound, the MIC [5] was 128 µg/mL (≈ 640 µM), the “secretion in sow's milk” value [6] was “secreted in sow's milk” and the MIC [7] was 32 µg/mL (≈ 160 µM). For the same compound, the Survival ([8]; Test A, 100 gm./ton feed) was 20/36, the “Avg. Wt.” value ([8]; Test A, 100 gm./ton feed) was 94 gm and the Survival ([8]; Test B, 200 gm./ton feed) was 35/36. The “Avg. Wt.” value ([8]; Test B, 200 gm./ton feed) was 107 gm, the Survival ([8]; Test C, 200 gm./ton feed) was 34/48 and the “Avg. Wt.” value ([8]; Test C, 200 gm./ton feed) was 71 gm. For the same compound, the MIC [9] was greater than 100 µg/mL, the Survival ([10]; 0.1 gm./gal. in drinking water) was 8/10 and the Survival ([10]; 0.2 gm./gal. in drinking water) was 10/10. For the same compound, the MIC [11] was 32 µg/mL (≈ 160 µM), the ED50 ([12]; Escherichia coli, sc, subcutaneous, 1 and 5 hours post-inoculation) was 19.6 mg/kg and the “Days Survived” value ([12]; two subcutaneous doses of 83 mg./kg., 1 and 5 hours) was 7.0 days. For the same compound, the MIC [13] was 32 µg/mL (≈ 160 µM), the “Avg. Wt.” value [14, 21] was 1239 gm and the “E. coli Lesions” value [14, 21] was 17/18. The Mortality [14, 21] was 0/18, the Mortality ([14]; 100 gm./ton, approximately 7-week-old chickens) was 3/12 and the “E. coli Lesions” value ([14]; 100 gm./ton, approximately 7-week-old chickens, birds which died not examined) was 5/9. The “Avg. Wt.” value [14, 22] was 1209 gm, the “E. coli Lesions” value [14, 22] was 37/40 and the Mortality [14, 22] was 6/40. For the same compound, the “Avg. Wt.” value [14, 23] was 1250 gm, the “E. coli Lesions” value [14, 23] was 16/18 and the Mortality [14, 23] was 0/18. The “Avg. Wt.” value [14, 24] was 1353 gm, the “E. coli Lesions” value [14, 24] was 31/40 and the Mortality [14, 24] was 2/40. The “E. coli Lesions” value [14, 25] was 11/30, the Mortality [14, 25] was 0/30 and the Wt. [14, 25] was 1103 gm. For the same compound, the “Avg. Wt.” value [14, 26] was 1302 gm, the “E. coli Lesions” value [14, 26] was 5/18 and the Mortality [14, 26] was 0/18. The Mortality ([14]; 300 gm./ton, approximately 7-week-old chickens) was 0/12, the “E. coli Lesions” value ([14]; 300 gm./ton, approximately 7-week-old chickens, birds which died not examined) was 4/12 and the Mortality ([14]; 600 gm./ton, approximately 7-week-old chickens) was 0/12. For the same compound, the “E. coli Lesions” value ([14]; 600 gm./ton, approximately 7-week-old chickens, birds which died not examined) was 2/12, the Mortality ([14]; 1000 gm./ton, approximately 7-week-old chickens) was 0/12 and the “E. coli Lesions” value ([14]; 1000 gm./ton, approximately 7-week-old chickens, birds which died not examined) was 0/12. For the same compound, the MIC [15] was greater than 128 µg/mL, the MIC [16] was 32 µg/mL (≈ 160 µM) and the MIC [17] was 6.25 µg/mL (≈ 31.2 µM). The “Percent Control of fire blight” value ([18]; 100 ppm.) was 50% and the “Percent Control of fire blight” value ([18]; 500 ppm.) was 92%.
